Measured values: patent US20180078498A1, “Microneedle Patch for Delivering an Active Ingredient to Skin” (LEO Pharma A/S, priority 2015, published 2018)

Experiment: Testing of biodegradable polymers as microneedle matrix (physical stability, release, chemical stability of active ingredient)
Type: physicochemical
Description: In the course of research leading to the present invention, a large number of different biodegradable polymers were tested for their suitability to form a matrix from which the microneedles could be made.

chemical stability of calcipotriol (ester-terminated polylactide, polyglycolide or polylactide co-glycolide as the biodegradable polymer): chemically stable | chemical stability of calcipotriol (in a matrix of polylactic acid, polyglycolic acid or polylactic co-glycolic acid): not chemically stable
SMILES: C=C1/C(=C\C=C2/CCC[C@]3(C)[C@@H]([C@H](C)/C=C/[C@@H](O)C4CC4)CC[C@@H]23)C[C@@H](O)C[C@@H]1O [calcipotriol]
